# US10597388B2, “Pyridazinone herbicides” (FMC CORPORATION, priority 2014, dated 2020)
# Like-named read-outs stand apart in the source and are kept apart here.
# Experiments:
# Assay type in all cases: in vivo
# [1] = system: barnyardgrass (Echinochloa crus-galli); assay: Test A greenhouse herbicide test, pre- and postemergence; conditions: Echinochloa crus-galli, 240 h, 1000 g ai/ha, 0 to 100 scale
# In short: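 Seeds sown in loam–sand blend got a preemergence directed soil spray of compound in non-phytotoxic solvent with surfactant. Postemergence treatment was given at 2–10 cm, one- to two-leaf stage. After ~10 d in greenhouse, injury was rated visually vs untreated controls, 0 (no effect) to 100 (complete control).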
# corn (Zea mays) = assay: Test C greenhouse herbicide test, pre- and postemergence
# In short: (§1)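 Each species was treated both before emergence, in a loam–sand soil mix, and after emergence, as 1- to 4-leaf seedlings in peat-based potting medium. Plants stayed in the greenhouse 13 to 15 d, then were scored from 0 (no effect) to 100 (complete control) relative to controls.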
# [2] = system: crabgrass, large (large crabgrass, Digitaria sanguinalis); assay: as above
# In short: as §1
# [3] = system: foxtail, giant (giant foxtail, Setaria faberii); assay: as above
# In short: as §1
# [4] = system: johnsongrass (Sorghum halepense); assay: as above
# In short: as §1
# [5] = system: lambsquarters (Chenopodium album); assay: as above
# In short: as §1
# [6] = system: morningglory (Ipomoea coccinea); assay: as above
# In short: as §1
# [7] = system: oilseed rape (Brassica napus); assay: as above
# In short: as §1
# [8] = system: waterhemp (common waterhemp, Amaranthus rudis); assay: as above
# In short: as §1
# [9] = system: wheat (winter wheat, Triticum aestivum); assay: as above
# In short: as §1
# [10] = Postemergence, 31 g ai/ha, 0 to 100 scale (0 no effect, 100 complete control)
# [11] = Postemergence, 125 g ai/ha, scale 0 to 100, 0 is no effect, 100 is complete control
# [12] = Postemergence, 250 g ai/ha, scale 0 to 100, 0 no effect, 100 complete control, 13 to 15 d
# [13] = Preemergence, 31 g ai/ha, scale 0 to 100, 0 is no effect, 100 is complete control
# [14] = Preemergence, 62 g ai/ha, scale 0 to 100, 0 is no effect, 100 is complete control
# [15] = Preemergence, 125 g ai/ha, scale 0 to 100, 0 is no effect, 100 is complete control
# [16] = Preemergence, 250 g ai/ha, scale 0 to 100, 0 no effect, 100 complete control
# [17] = postemergence, 62 g ai/ha, scale 0 to 100, 0 no effect, 100 complete control
smiles,measurement,setting,value
"CCc1oc2ccc(C)cc2c1-c1c(O)c(C)nn(C)c1=O [Compound 10, 4-(2-ethyl-5-methyl-3-benzofuranyl)-5-hydroxy-2,6-dimethyl-3(2H)-pyridazinone]",pest or weed control at 1000 g/ha,"[1]; post-emergence, Postemergence, 0 is no effect, 100 is complete control, read-out: Barnyardgrass plant response rating",90%
same,pest or weed control at 1000 g/ha,"[1]; pre-emergence, Preemergence, 0 no effect, 100 complete control, read-out: Plant response rating, Barnyardgrass",100%
same,Corn plant response rating,corn (Zea mays); [10],0
same,"Plant response rating, Corn",corn (Zea mays); [11],5
same,"Plant response rating, Corn",corn (Zea mays); [12],5
same,"Plant response rating, Corn",corn (Zea mays); [13],0
same,"Plant response rating, Corn",corn (Zea mays); [14],0
same,"Plant response rating, Corn",corn (Zea mays); [15],0
same,Corn plant response rating,corn (Zea mays); [16],5
same,Corn plant response rating,corn (Zea mays); [17],0
same,"Crabgrass, Large plant response rating",[2]; [10],10
same,"Plant response rating, Crabgrass, Large",[2]; [11],65
same,"Plant response rating, Crabgrass, Large",[2]; [12],75
same,"Plant response rating, Crabgrass, Large",[2]; [13],0
same,"Plant response rating, Crabgrass, Large",[2]; [14],0
same,"Plant response rating, Crabgrass, Large",[2]; [15],0
same,"Crabgrass, Large plant response rating",[2]; [16],0
same,"Crabgrass, Large plant response rating",[2]; [17],30
same,"Foxtail, Giant plant response rating",[3]; [10],70
same,"Plant response rating, Foxtail, Giant",[3]; [11],50
same,"Plant response rating, Foxtail, Giant",[3]; [12],90
same,"Plant response rating, Foxtail, Giant",[3]; [13],0
same,"Plant response rating, Foxtail, Giant",[3]; [14],0
same,"Plant response rating, Foxtail, Giant",[3]; [15],0
same,"Foxtail, Giant plant response rating",[3]; [16],0
same,"Foxtail, Giant plant response rating",[3]; [17],60
same,Johnsongrass plant response rating,[4]; [10],0
same,"Plant response rating, Johnsongrass",[4]; [11],5
same,"Plant response rating, Johnsongrass",[4]; [12],25
same,"Plant response rating, Johnsongrass",[4]; [13],0
same,"Plant response rating, Johnsongrass",[4]; [14],0
same,"Plant response rating, Johnsongrass",[4]; [15],0
same,Johnsongrass plant response rating,[4]; [16],0
same,Johnsongrass plant response rating,[4]; [17],0
same,Lambsquarters plant response rating,[5]; [10],50
same,"Plant response rating, Lambsquarters",[5]; [11],65
same,"Plant response rating, Lambsquarters",[5]; [12],98
same,"Plant response rating, Lambsquarters",[5]; [13],0
same,"Plant response rating, Lambsquarters",[5]; [14],0
same,Lambsquarters plant response rating,[5]; [16],30
same,Lambsquarters plant response rating,[5]; [17],80
same,Morningglory plant response rating,[6]; [10],55
same,"Plant response rating, Morningglory",[6]; [11],100
same,"Plant response rating, Morningglory",[6]; [12],100
same,"Plant response rating, Morningglory",[6]; [13],0
same,"Plant response rating, Morningglory",[6]; [14],0
same,"Plant response rating, Morningglory",[6]; [15],25
same,Morningglory plant response rating,[6]; [16],55
same,Morningglory plant response rating,[6]; [17],90
same,Oilseed Rape plant response rating,[7]; [10],0
same,"Plant response rating, Oilseed Rape",[7]; [11],0
same,"Plant response rating, Oilseed Rape",[7]; [12],0
same,"Plant response rating, Oilseed Rape",[7]; [13],0
same,"Plant response rating, Oilseed Rape",[7]; [14],0
same,"Plant response rating, Oilseed Rape",[7]; [15],0
same,Oilseed Rape plant response rating,[7]; [16],0
same,Oilseed Rape plant response rating,[7]; [17],0
same,Waterhemp plant response rating,[8]; [10],40
same,"Plant response rating, Waterhemp",[8]; [11],50
same,"Plant response rating, Waterhemp",[8]; [12],90
same,"Plant response rating, Waterhemp",[8]; [14],0
same,"Plant response rating, Waterhemp",[8]; [15],100
same,Waterhemp plant response rating,[8]; [16],90
same,Waterhemp plant response rating,[8]; [17],45
same,Wheat plant response rating,[9]; [10],0
same,"Plant response rating, Wheat",[9]; [11],0
same,"Plant response rating, Wheat",[9]; [12],0
same,"Plant response rating, Wheat",[9]; [14],0
same,"Plant response rating, Wheat",[9]; [15],0
same,Wheat plant response rating,[9]; [16],0
same,Wheat plant response rating,[9]; [17],0
